Experimental data published in ChEMBL document CHEMBL1201862, “PubChem BioAssay data set” (2004).
Active and inactive are the calls of the source.

Key:
Cytochrome P450 2C9 = Cytochrome P450 2C9 (Homo sapiens, UniProt P11712)
Cytochrome P450 1A2 = target: T1, Cytochrome P450 1A2 (Homo sapiens, UniProt P05177);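 further: PubChem cytochrome P450 panel assay, CYP1A2 panel member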
T1 sequence (P05177 whole entry): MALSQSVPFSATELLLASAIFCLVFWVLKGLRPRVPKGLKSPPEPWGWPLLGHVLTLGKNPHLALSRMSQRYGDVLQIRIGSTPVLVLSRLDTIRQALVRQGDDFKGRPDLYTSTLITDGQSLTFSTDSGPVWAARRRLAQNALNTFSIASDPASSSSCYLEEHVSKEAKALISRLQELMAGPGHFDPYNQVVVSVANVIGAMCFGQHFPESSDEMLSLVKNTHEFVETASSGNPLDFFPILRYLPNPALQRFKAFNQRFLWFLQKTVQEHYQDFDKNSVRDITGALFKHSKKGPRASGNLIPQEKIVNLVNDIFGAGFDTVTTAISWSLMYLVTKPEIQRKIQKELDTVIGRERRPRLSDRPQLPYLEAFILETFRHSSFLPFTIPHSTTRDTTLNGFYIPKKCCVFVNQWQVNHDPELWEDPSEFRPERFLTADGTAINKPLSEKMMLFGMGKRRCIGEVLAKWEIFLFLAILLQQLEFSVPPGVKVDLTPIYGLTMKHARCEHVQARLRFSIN

[1] = target: T2, Short transient receptor potential channel 4 (Mus musculus, UniProt Q9QUQ5); assay: calcium entry via TRPC4 opening agents – cell-based, HEK293 TRPC4/mu-opioid, Fluo-4 calcium, dose response (AID 434937); format: functional
T2 sequence (Q9QUQ5 whole entry): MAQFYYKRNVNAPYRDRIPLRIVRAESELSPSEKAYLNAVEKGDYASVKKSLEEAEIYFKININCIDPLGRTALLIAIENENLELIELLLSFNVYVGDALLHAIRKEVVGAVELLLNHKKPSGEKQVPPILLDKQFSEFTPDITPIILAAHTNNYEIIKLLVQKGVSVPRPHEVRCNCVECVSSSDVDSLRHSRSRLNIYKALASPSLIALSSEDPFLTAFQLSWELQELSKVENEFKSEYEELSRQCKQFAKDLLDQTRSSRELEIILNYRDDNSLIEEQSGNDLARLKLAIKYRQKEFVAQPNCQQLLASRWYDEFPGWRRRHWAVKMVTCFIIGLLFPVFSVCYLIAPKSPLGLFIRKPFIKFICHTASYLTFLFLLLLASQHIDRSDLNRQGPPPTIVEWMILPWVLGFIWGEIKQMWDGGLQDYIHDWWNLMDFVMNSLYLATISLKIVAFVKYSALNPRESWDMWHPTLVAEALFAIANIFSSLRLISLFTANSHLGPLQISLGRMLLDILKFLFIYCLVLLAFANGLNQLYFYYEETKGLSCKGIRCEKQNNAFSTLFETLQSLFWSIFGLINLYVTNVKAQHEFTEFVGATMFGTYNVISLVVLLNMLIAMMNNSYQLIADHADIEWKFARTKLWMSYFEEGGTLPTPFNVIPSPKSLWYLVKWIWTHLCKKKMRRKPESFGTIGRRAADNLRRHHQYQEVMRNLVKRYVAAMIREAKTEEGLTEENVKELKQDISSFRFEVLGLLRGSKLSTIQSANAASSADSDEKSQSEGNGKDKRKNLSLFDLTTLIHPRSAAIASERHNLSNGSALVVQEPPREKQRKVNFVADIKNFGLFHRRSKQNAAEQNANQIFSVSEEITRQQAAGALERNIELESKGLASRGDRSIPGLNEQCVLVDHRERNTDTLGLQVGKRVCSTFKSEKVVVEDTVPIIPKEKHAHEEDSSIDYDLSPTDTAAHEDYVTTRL

[2] = alpha-synuclein stem-loop luciferase translation blockers – H4 neuroglioma cells, luminescence, confirmation (AID 1988); format: functional, cell-based
[3] = Luminescence Cell-Based Dose Response HTS to Identify Inhibitors of 5'UTR Stem-Loop Driven Prion Protein mRNA Translation in H4 Neuroglioblastoma Cells. [Related pubchem assays: 1827 (Project Summary), 1813 (Primary HTS)]; format: functional
[4] = luciferase reporter signal suppression in cells – H4 neuroglioma cells, luminescence, dose response (AID 1990); format: functional, cell-based
[5] = target: T3, Microphthalmia-associated transcription factor (Homo sapiens, UniProt O75030); assay: reducers of TRPM1 reporter luminescence, concentration series – cell-based, SK-MEL-5, cherry-picked, set 3, MITF inhibitor project, dose response (AID 493073); format: functional;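 further: SK-MEL-5 melanoma cells with luciferase driven by the MITF target TRPM1 promoter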
T3 sequence (O75030 whole entry): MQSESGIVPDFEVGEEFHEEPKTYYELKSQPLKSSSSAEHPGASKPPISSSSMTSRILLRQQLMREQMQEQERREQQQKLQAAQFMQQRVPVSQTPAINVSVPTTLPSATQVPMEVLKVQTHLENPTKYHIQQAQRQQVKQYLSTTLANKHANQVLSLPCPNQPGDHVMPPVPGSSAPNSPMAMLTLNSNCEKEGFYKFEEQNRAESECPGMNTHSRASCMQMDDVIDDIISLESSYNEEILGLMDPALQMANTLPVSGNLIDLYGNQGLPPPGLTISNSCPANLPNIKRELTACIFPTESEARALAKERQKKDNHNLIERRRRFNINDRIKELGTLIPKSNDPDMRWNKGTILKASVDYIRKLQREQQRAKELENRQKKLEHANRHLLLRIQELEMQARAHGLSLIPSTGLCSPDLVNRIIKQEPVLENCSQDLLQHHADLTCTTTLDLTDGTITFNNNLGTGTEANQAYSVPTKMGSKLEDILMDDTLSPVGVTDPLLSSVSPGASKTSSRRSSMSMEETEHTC

Cytochrome P450 3A4 = Cytochrome P450 3A4 (Homo sapiens, UniProt P08684);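 further: CYP3A4 tested as one member of a cytochrome P450 panel screen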
Sequence of Cytochrome P450 3A4 (P08684 whole entry): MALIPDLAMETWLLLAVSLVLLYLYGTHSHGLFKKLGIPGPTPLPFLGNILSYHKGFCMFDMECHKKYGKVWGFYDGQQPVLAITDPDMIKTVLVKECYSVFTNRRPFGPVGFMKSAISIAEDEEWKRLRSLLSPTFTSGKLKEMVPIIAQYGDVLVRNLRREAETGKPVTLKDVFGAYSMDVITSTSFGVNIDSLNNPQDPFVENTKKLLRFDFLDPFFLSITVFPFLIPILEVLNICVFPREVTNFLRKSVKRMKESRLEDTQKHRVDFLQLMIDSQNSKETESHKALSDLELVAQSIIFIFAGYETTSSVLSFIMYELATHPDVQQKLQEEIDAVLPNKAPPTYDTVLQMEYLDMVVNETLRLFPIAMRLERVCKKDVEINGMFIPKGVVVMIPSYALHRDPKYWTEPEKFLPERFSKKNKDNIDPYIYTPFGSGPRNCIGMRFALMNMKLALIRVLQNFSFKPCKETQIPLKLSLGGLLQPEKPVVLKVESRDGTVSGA

[6] = NIH-3T3 fibroblast cytotoxicity, dose response, cytotoxicity control, cell-based, fluorescence, Alamar Blue, secondary assay (AID 2327); format: functional;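 further: NIH-3T3 mouse fibroblasts cultured with fluconazole at 8 µg/mL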
INS1 = assay: INS-1E survival protection against cytokine death – cell-based, luminescence, retest, dose response (AID 449756); format: functional; settings: Rattus norvegicus;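 further: cell death triggered by IL-1 beta plus TNF-alpha plus IFN-gamma mixture; protective hits raise ATP signal compared with cytokine alone wells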
[7] = viability of PTEN-deleted HCT116 cells – cell-based, HCT116 PTEN knockout, dose response (AID 1047); format: functional;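 further: HCT116 colon tumor cells with PTEN knocked out; cells exposed to compound for 60 hours before readout; potency for loss of cell viability measured by luminescence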
[8] = fluconazole-exposed Candida albicans growth modulators – fluorescence, retest, confirmation (AID 2467); format: functional, cell-based
[9] = viability of HCT116 lacking mutant beta-catenin – cell-based, human colon tumor, dose response (AID 1045); format: functional;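 further: HCT116 colon tumor cells with beta catenin knocked out; cells exposed to compound for 60 hours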
Protein RecA = target: T4, Protein RecA (Mycobacterium tuberculosis, UniProt P9WHJ3); assay: Fluorescence Cell-Free Homogeneous Dose Retest to Identify Inhibitors of RecA-Intein Splicing Activity. [Related pubchem assays (depositor defined):AID2097, AID2223, AID489010, AID492950]; format: functional
T4 sequence (P9WHJ3 whole entry): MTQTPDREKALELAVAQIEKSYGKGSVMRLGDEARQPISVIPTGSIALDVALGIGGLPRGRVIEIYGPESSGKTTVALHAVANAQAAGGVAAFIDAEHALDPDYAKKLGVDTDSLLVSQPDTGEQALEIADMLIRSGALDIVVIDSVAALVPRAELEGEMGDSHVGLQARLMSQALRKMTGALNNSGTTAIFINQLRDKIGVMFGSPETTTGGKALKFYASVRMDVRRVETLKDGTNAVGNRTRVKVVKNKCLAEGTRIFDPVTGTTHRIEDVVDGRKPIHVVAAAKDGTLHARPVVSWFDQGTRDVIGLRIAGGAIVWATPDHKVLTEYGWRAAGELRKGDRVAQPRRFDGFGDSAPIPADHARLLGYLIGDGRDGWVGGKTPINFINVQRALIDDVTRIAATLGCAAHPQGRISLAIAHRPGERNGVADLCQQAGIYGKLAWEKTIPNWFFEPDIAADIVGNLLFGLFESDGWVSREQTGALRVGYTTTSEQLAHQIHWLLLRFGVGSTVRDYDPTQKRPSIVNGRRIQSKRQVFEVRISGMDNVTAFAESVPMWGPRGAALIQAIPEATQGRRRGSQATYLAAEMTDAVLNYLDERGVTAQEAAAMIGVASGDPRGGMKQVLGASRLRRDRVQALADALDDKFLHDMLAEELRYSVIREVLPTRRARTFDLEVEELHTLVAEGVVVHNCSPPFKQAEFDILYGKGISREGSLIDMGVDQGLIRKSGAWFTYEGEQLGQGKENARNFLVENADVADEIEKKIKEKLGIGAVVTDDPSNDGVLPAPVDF

Cytochrome P450 2D6 = Cytochrome P450 2D6 (Homo sapiens, UniProt P10635);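 further: CYP2D6 member of a cytochrome P450 panel assay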
Sequence of Cytochrome P450 2D6 (P10635 whole entry): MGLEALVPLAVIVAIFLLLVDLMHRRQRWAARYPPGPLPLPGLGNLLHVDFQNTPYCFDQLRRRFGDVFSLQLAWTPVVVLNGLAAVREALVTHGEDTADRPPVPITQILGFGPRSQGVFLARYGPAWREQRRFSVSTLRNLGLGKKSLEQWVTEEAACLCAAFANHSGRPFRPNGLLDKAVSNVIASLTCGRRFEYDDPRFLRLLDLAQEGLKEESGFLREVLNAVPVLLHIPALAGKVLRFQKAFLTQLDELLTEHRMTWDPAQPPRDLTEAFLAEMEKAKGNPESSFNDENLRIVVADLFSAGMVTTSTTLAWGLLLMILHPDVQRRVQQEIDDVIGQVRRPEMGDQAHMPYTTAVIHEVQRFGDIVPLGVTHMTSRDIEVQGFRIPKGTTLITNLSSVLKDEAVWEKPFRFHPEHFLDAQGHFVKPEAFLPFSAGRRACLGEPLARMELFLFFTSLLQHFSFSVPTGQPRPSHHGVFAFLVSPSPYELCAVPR

[10] = target: T5, Replicative DNA helicase DnaB (Mycobacterium tuberculosis, UniProt P9WMR3); assay: DnaB intein splicing inhibitors, dose response, biochemical, cell-free fluorescence (AID 449749); format: functional
T5 sequence (P9WMR3 whole entry): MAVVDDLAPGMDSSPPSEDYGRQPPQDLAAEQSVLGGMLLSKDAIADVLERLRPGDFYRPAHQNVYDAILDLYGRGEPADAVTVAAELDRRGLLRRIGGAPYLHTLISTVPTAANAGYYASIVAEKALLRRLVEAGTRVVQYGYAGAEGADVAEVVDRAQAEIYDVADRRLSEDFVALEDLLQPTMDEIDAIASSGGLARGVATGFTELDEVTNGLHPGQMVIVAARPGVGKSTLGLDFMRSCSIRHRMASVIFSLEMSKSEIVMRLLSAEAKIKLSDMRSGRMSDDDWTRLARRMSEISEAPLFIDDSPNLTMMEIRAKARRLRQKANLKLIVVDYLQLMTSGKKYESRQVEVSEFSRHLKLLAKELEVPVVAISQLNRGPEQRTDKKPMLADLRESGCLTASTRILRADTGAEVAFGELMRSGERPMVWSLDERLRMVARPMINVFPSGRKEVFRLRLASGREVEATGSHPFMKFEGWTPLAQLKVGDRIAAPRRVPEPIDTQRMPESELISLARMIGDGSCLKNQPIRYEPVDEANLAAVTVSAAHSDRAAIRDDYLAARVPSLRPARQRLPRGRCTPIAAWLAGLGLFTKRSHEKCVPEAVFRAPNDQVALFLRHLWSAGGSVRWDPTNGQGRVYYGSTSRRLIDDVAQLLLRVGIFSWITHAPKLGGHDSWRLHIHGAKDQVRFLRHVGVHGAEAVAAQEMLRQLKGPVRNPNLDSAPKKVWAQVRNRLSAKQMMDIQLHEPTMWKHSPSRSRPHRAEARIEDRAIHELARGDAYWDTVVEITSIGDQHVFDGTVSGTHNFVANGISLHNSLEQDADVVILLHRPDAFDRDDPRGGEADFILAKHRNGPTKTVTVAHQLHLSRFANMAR

Sequence of Cytochrome P450 2C9 (P11712 whole entry): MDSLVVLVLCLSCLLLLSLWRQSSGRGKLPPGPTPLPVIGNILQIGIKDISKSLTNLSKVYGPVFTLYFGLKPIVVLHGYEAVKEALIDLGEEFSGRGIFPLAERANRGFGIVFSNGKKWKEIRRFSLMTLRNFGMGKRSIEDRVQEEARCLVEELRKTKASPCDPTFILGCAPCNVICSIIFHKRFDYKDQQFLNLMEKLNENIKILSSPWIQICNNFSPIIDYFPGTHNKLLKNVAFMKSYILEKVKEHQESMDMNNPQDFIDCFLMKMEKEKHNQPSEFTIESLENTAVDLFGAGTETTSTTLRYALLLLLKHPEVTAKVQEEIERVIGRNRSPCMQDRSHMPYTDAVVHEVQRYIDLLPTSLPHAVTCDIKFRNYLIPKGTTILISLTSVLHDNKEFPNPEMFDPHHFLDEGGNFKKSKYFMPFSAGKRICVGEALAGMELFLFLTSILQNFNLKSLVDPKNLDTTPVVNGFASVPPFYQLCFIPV

## COc1ccccc1CN1CC[C@@]2(CCCN(C(=O)c3c(C)noc3C)C2)C1
Cytochrome P450 2C9
  AC50: inconclusive

## Cc1csc(NC(=O)CCNS(=O)(=O)c2ccc3c(c2)c(=O)n(C)c(=O)n3C)n1
Cytochrome P450 2C9
  AC50: inconclusive
Cytochrome P450 1A2
  AC50: 0.00631 µM (inconclusive)

## Cc1ccc(NC(=O)NCC(c2ccccc2)N(C)C)cc1 (stereo not given)
[1]
  EC50: 0.004 µM (active)

## C=CCSc1nc(C)cc(/C=C\c2ccccc2)c1C#N
Cytochrome P450 2C9
  AC50: inconclusive

## O=C(Nc1ccc(S(=O)(=O)N2CCCCCC2)cc1)c1n[nH]cc1[N+](=O)[O-]
[2]
  EC50: 8.3 µM (active)
[3]
  EC50: 53.1 µM (active)
[4]
  EC50: 6.09 µM (active)
[5]
  AC50: 4.02 µM (active)

## COc1cc(/C=C/C(=O)N2CCN(CC(O)COc3ccccc3)CC2)cc(OC)c1OC.Cl (stereo not given)
Cytochrome P450 3A4
  AC50: 10 µM (inconclusive)
Cytochrome P450 2C9
  AC50: inconclusive

## O=C(NCCc1ccccn1)c1ccc(COc2ccccc2)o1
[1]
  EC50: 4.73 µM (active)

## O=C(Nc1cccc(F)c1)N1CC2(CCN(C(=O)c3cc(C(F)(F)F)cc(C(F)(F)F)c3)CC2)C1
Cytochrome P450 3A4
  AC50: 39.8 µM (inconclusive)
Cytochrome P450 2C9
  AC50: inconclusive

## COc1cccc(C(=O)Oc2c(CN3CCOCC3)cc(Cl)c3cccnc23)c1
[6]
  EC50: > 75 µM (inactive)
INS1
  AC50: 4.85 µM (active)
[7]
  EC50: 3.38 µM (active)
[8]
  EC50: 1.83 µM (active)
[5]
  AC50: 9.9 µM (active)
[9]
  EC50: 2.48 µM (active)

## CCC(CC)C(=O)NCc1ccc2c(c1)cc(C)n2C
Protein RecA
  EC50: > 380 µM (inactive)
Cytochrome P450 2D6
  AC50: 31.6 µM (inconclusive)
Cytochrome P450 2C9
  AC50: inconclusive
[10]
  AC50: > 380 µM (inactive)

## C=CCn1c(CCNC(=O)C(C)(C)C)nc2ccccc21
[1]
  EC50: 3.76 µM (active)
